Consider five compounds from US10414797B2, “Gelatinase inhibitors and use thereof” (Iproteos S.L, priority 2015, dated 2019).

Each structure is given as a SMILES string. Where a SMILES comes first, the peptide text is derived from it. [ ]: non-standard residue; d: D form. The star is where a group is joined. ξ: configuration not given here. Pro(trans-4-F) = O=C(O)[C@@H]1C[C@@H](F)CN1; NMeIle(3ξ) = CCC(C)[C@H](NC)C(=O)O; Dab = NCC[C@H](N)C(=O)O; Hexanoyl = CCCCCC(=O)*; Bz = O=C(c1ccccc1)*; NHOH = ON*

For one data set, the target named is MMP-7 (Homo sapiens (Human), UniProt P09237). The data set is described as follows: MMP-7 inhibition assay (fluorogenic peptide substrate). Format: biochemical. To be noted: recombinant MMP-7 8.3 nM, Mca-PLGL-Dpa-AR-NH2 10 μM, 4 hours at room temperature; tested at 1, 10, 100 and 200 μM. Here is the method:
All the experiments were done in 1× reaction buffer, which was obtained from a 10× reaction buffer solution. The content of the 10× reaction buffer was: 50 mL of 0.5 M Tris-HCl, 1.5 M NaCl, 50 mM CaCl2 and 2 mM sodium azide at pH 7.6. To obtain the 1× reaction buffer 4 mL of the 10× reaction buffer were diluted in 36 mL of H2O.
Recombinant MMP-7 expressed in E. Coli was obtained from Merck-Millipore (catalog number 44270). Mca-PLGL-Dpa-AR-NH2 (fluorogenic peptide substrate) was obtained from R&D Systems (catalog number ES001).
Preparation of the MMP-7 for the activity assay: MMP-7 was provided as a stock solution (2.1 mg/mL). The enzyme was diluted in water to a final concentration of 0.005 mg/mL.
MMP-7 peptide substrate was provided as a solid (1 mg). A 4 mM stock solution of the substrate in DMSO was obtained by adding 214.7 μL of DMSO. After which, a 100 μM solution of substrate was prepared in 1× reaction buffer.
Procedure: The enzymatic assays were performed in 96-well microtiter plate, which allowed simultaneous monitoring of multiple reactions. For each reaction, 84.6 μL of 1× reaction buffer (pH 7.6), 3.4 μL of MMP-7 (final concentration 8.3 nM) and 2 μL of the corresponding new compound were added to each well. A stock solution of new compound was prepared in DMSO (100 mM), and dilutions were prepared from this stock solution with DMSO. Finally, to the mixture contained in each well 10 μL of the substrate were added (final concentration 10 μM). The reaction was incubated for 4 hours at room temperature in an orbital shaker (90 rpm).
The inhibitory activity of the new compound was measured fluorimetrically. The excitation and emission wavelengths were 320 and 405 nm, respectively.
Inhibitory activity at several concentration points (1, 10, 100 and 200 μM) were measured for each compound. The inhibitory activity on MMP-1, MMP-3 and MMP-7 was calculated according to eq 1 and The IC50 value was calculated as explained above for MMP-2 and MMP-9.

Data set [1] is described as follows: Parallel artificial membrane permeability assay (PAMPA), Blood-Brain Barrier. To be noted: initial concentration 200 μM, pH 7.4, 4 hours; for Papp at 4 h, 200 µM: pig, read-out: Effective permeability Pe. Type of data set: in vitro ADME. Here is the method:
Parallel Artificial Membrane Permeability Assay (PAMPA)
Parallel artificial membrane permeability assay (PAMPA) described in Kansy et al., J. M. Chem. 1998; 41(7):1007-10 was used here to determine the capacity of compounds to cross the Blood-Brain Barrier (BBB) by passive diffusion (Di L et al., Eur. J. Med. Chem. 2003; 38(3):223-32). The effective permeability (Pe) of the compounds was measured at an initial concentration of 200 μM. The buffer solution was prepared from a commercial concentrated one following the manufacturer's instructions. pH was adjusted to 7.4 using a 0.5 M NaOH solution. A stock solution of new compound was prepared in DMSO and diluted with buffer solution to a final 200 μM concentration (0.5% DMSO content). The PAMPA sandwich was separated and each donor well was filled with […] of the compound solution. The acceptor plate was placed into the donor plate, ensuring that the underside of the membrane was in contact with buffer. 4 μL of the mixture of phospholipids (20 mg/ml) in dodecane was added to the filter of each well, and 200 μL of buffer solution was added to the each acceptor well. The plate was covered and incubated at room temperature in a saturated humidity atmosphere for 4 hours under orbital agitation at 100 rpm. After 4 hours, the contents of the acceptor and donor compartments were analyzed by HPLC: 150 μL of each well from the donor plate and 150 μL of each well from the acceptor plate were transferred to HPLC vials, injecting each sample into a reverse-phase C18 column (150 mm×4.6 mm×5 μm, 100 Å) (100 μL/injection from the acceptor wells, 10 μL/injection from the donor wells and for t0 references). Transport was also confirmed using mass spectrometry (MALDI-TOF).
The phospholipid mixture used was a porcine polar brain lipid extract, provided by Avanti polar lipids, with the following composition: 12.6% phosphatidylcholine (PC), 33.1% phosphatidylethanolamine (PE), 18.5% phosphatidylserine (PS), 4.1% phosphatidylinositol (PI), 0.8% phosphatidic acid and 30.9% of other compounds.
The effective permeability (Pe) after 4 hours was calculated using equation 2 and the percentage of transport (T %) was calculated using equation 3: […]
Ca(t) is the compound concentration in the acceptor well at time t
And Cd(t0) is the compound concentration in the donor well at t0.

Chain of MMP-7 (P09237 95-267): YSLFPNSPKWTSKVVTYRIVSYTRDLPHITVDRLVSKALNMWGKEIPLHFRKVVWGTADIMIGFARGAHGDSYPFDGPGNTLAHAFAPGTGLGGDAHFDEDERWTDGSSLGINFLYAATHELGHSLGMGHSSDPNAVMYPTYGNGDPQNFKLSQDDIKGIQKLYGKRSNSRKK

Regarding `CCCCCC(=O)N1C[C@H](F)C[C@H]1C(=O)N(C)[C@H](C(=O)N[C@@H](CCNC(=O)c1ccccc1)C(=O)NO)C(C)CC` (stereo partly drawn) [Example 16, (2S,4R)—N-[(1S)-1-[[(1S)-3-benzamido-1-(hydroxycarbamoyl)propyl]carbamoyl]-2-methyl-butyl]-4-fluoro-N-methyl-1-hexanoyl-pyrrolidine-2-carboxamide] (Hexanoyl-[Pro(trans-4-F)]-[NMeIle(3ξ)]-[Dab](Bz)-{NHOH}), on MMP-7, the 50% inhibitory concentration (IC50) was found to be 1 µM. In addition, in data set [1], the “percentage of transport % T” value is given as 7.3% and the Papp at 4 h, 200 µM was determined as 3.7 ×10⁻⁶ cm/s.
On the same counts, the results for `CCC(C)[C@@H](C(=O)N[C@@H](CCNC(=O)c1ccc(F)cc1)C(=O)NO)N(C)C(=O)[C@@H]1CCCN1C(C)=O` (stereo partly drawn) [Example 1, (2S)-1-acetyl-N-[(1S)-1-[[(1S)-3-[(4-fluorobenzoyl)amino]-1-(hydroxycarbamoyl)propyl]carbamoyl]-2-methyl-butyl]-N-methyl-pyrrolidine-2-carboxamide] are 23 µM, 0.4% and 0.094 ×10⁻⁶ cm/s.
On the same counts, the results for `CCCC(CCC)C(=O)N1CCC[C@H]1C(=O)N(C)[C@H](C(=O)N[C@@H](CCNC(=O)c1cc(F)cc(F)c1)C(=O)NO)C(C)CC` (stereo partly drawn) [Example 8, (2S)—N-[(1S)-1-[[(1S)-3-[(3,5-difluorobenzoyl)amino]-1-(hydroxycarbamoyl)propyl]carbamoyl]-2-methyl-butyl]-N-methyl-1-(2-propylpentanoyl)pyrrolidine-2-carboxamide] are 4.1 µM, 9.0% and 4.7 ×10⁻⁶ cm/s.
On the same counts, the results for `CCC(C)[C@@H](C(=O)N[C@@H](CCNC(=O)c1cc(F)cc(F)c1)C(=O)NO)N(C)C(=O)[C@@H]1CCCN1C(=O)CCCOc1ccccc1` (stereo partly drawn) [Example 9, (2S)—N-[(1S)-1-[[(1S)-3-[(3,5-difluorobenzoyl)amino]-1-(hydroxycarbamoyl)propyl]carbamoyl]-2-methyl-butyl]-N-methyl-1-(4-phenoxybutanoyl)pyrrolidine-2-carboxamide] are 40.3 µM, 9.9% and 5.2 ×10⁻⁶ cm/s.
For the compound `CCC(C)[C@@H](C(=O)N[C@@H](CCNC(=O)c1cc(F)cc(F)c1)C(=O)NO)N(C)C(=O)[C@@H]1CCCN1C(C)=O` (stereo partly drawn) [Example 2, (2S)-1-acetyl-N-[(1S)-1-[[(1S)-3-[(3,5-difluorobenzoyl)amino]-1-(hydroxycarbamoyl)propyl]carbamoyl]-2-methyl-butyl]-N-methyl-pyrrolidine-2-carboxamide], the IC50 on MMP-7 was 31.4 µM. In addition, in data set [1], the “percentage of transport % T” value is listed as 0.8% and the Papp at 4 h, 200 µM was 0.2 ×10⁻⁶ cm/s.
